For data set [1], the system named is Liver. Kind of data set: Toxicity in ICR mouse liver fraction assessed as ROS production at 1 to 20 uM by Clark-type oxygen electrode assay. The data set is classed as tissue-based.
Data set [2] has as its system Liver. In words: Increase in oxygen consumption rate of mitochondrial state 3 respiration in ICR mouse liver fraction at 20 uM by Clark-type oxygen electrode assay. The class given is functional.
The subject of data set [3] is Mus musculus. In words: Toxicity in ICR mouse assessed as lesions in kidney at 0.4 to 0.8 mg/kg/week, ip for 6 weeks measured after 6 weeks relative to control. Set-up: route intraperitoneal. The conditions noted are these: in vivo, 1008 h. The data set is classed as organism-based.
For data set [4], the system named is Liver. In words: Increase in oxygen consumption rate of mitochondrial state 4 respiration in ICR mouse liver fraction at 10 uM by Clark-type oxygen electrode assay. The class given is functional.
In data set [5] the test system is Liver. In words: Increase in oxygen consumption rate of mitochondrial state 4 respiration in ICR mouse liver fraction at 20 uM by Clark-type oxygen electrode assay. The data set is classed as functional.
Data set [6] relates to Mus musculus. Kind of data set: Antiobesity activity in ICR mouse assessed as body weight reduction at 0.4 to 0.8 mg/kg/week, ip for 6 weeks measured after 6 weeks relative to control. The data set is classed as functional. Set-up: scale not given: the % may be the effect or the level left. The conditions noted are these: route intraperitoneal.
Data set [7] concerns Mus musculus. Kind of data set: Toxicity in ICR mouse assessed as lesions in liver at 0.4 to 0.8 mg/kg/week, ip for 6 weeks measured after 6 weeks relative to control. The data set is classed as organism-based. Set-up: route intraperitoneal. The settings on record: in vivo, 1008 h.

Molecules are shown by their SMILES. Active and inactive are the calls of the source. No cut-off for these calls is given here.

Results on twelve compounds are retold here after ChEMBL document CHEMBL3351581, “Synthesis of prenylated quinolinecarboxylic acid derivatives and their anti-obesity activities” (Bioorg Med Chem, 2015).

Turning to `CC(C)=CCOC(=O)c1cc(OCC=C(C)C)c2cccc(OCC=C(C)C)c2n1`, the Activity result was “Non-toxic” with Liver [1], “Non-toxic” in the data set with Mus musculus [3], 6% with Mus musculus [6] and “Non-toxic” in the data set with Mus musculus [7]. Besides, the result in the data set with Liver [2] was inactive. Besides, the result in the data set on Liver [4] and with Liver [5] was Active. Take `COc1cc(C(=O)OCCC(C)C)nc2c(OCC=C(C)C)cccc12`: in the data set with Liver [5], the result was inactive. `COc1cc(C(=O)OC2CCCC2)nc2c(OCC=C(C)C)cccc12`: in the data set with Liver [5], the outcome was inactive.

For the compound `COc1cc(C(=O)OC/C=C(\C)CCC=C(C)C)nc2c(OCC=C(C)C)cccc12`, the outcome in the data set on Liver [5] was inactive.

For `CCCCCOc1cc(C(=O)OCC=C(C)C)nc2c(OCC=C(C)C)cccc12`, the result in the data set with Liver [5] was Active.

Take `COc1cc(C(=O)NCC=C(C)C)nc2c(OCC=C(C)C)cccc12`: the outcome with Liver [5] was inactive. Consider `COC(=O)c1cc(OC)c2cccc(OCC=C(C)C)c2n1`, for which the result in the data set on Liver [5] was inactive. As for `COc1cc(C(=O)OCC=C(C)C)nc2c(OCCC(C)C)cccc12`, in the data set on Liver [5], the result was inactive.

Take `COc1cc(C(=O)OCC=C(C)C)nc2c(OCC=C(C)C)cccc12`: the Activity result in the data set with Liver [1] was “Non-toxic”. Also, the result with Liver [2] was inactive. Further, the outcome with Liver [5] was Active. With `COc1cc(C(=O)OCC=C(C)C)nc2c(OC3CCCC3)cccc12`, the outcome in the data set with Liver [5] was inactive. Turning to `COc1cc(C(=O)OCC=C(C)C)nc2c(OC)cccc12`, in the data set with Liver [5], the outcome was inactive. The same measure, in the same setting: the value for `COc1cc(C(=O)OCC=C(C)C)nc2c(OC/C=C(\C)CCC=C(C)C)cccc12` was “inactive”.
